Paper PMC10180211, “Stability Analysis of the Asiatic Acid-COX-2 Complex Using 100 ns Molecular Dynamic Simulations and Its Selectivity against COX-2 as a Potential Anti-Inflammatory Candidate” (Molecules, 2023)

Target: T1, cyclooxygenase-2 (COX-2) (Ovis aries, UniProt P79208)
T1 construct: gene PTGS2
T1 sequence (P79208 17-603): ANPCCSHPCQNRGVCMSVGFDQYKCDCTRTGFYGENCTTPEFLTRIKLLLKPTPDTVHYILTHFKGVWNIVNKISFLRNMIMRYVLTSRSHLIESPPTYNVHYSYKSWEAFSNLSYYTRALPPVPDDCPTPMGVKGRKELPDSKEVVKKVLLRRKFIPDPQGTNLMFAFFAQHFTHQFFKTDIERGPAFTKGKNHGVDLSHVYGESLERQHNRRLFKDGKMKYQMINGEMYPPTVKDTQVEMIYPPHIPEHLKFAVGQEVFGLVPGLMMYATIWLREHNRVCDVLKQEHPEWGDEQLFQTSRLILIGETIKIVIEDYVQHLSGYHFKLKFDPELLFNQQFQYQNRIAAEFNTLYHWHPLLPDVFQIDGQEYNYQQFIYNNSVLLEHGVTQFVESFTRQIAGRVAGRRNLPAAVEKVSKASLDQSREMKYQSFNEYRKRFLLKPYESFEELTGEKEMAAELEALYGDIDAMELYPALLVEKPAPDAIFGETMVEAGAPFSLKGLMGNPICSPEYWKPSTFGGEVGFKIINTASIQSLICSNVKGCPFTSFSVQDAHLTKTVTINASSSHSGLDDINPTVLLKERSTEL
Assay: colorimetric COX inhibitor screening assay (kit […]; TMPD oxidation at […] nm) with ovine COX-2
Format: biochemical

`C[C@H]1[C@H](C)CC[C@]2(C(=O)O)CC[C@]3(C)C(=CC[C@@H]4[C@@]5(C)C[C@@H](O)[C@H](O)[C@@](C)(CO)[C@@H]5CC[C@]43C)[C@H]12` [asiatic acid, 2,3,23-trihydroxy-urs-12-ene-28-oic-acid] gave an IC50 of 120 µM.
